The target of test [1] is T1, chemokine receptor 4 (CXCR4) (Homo sapiens, UniProt P61073).
T1 construct: expressed in transfected cells; host or cells: MDAMB231 X4 (human MDA-MB-231 breast cancer cells, provided by Dr. Gary Luker)
In words: Flow cytometry competition binding on viable CXCR4 expressing cells (receptor affinity). To be noted: competition with Ac-TZ14011-MSAP (250 nM), 0.5 – 15,000 nM in PBS, MDAMB231 X4 cells, 1 h on ice, n = 2, One site-Fit Ki. The protocol:
Human MDAMB231 cells, transfected with human CXCR4 conjugated GFP (MDAMB231 X4), were kindly provided by Dr. Gary Luker (Center for Molecular Imaging, University of Michigan, USA).5 Native MDAMB231 cells with basal CXCR4 expression were used as control.6 Cells we re maintained in Dulbecco’s minimum essential medium (DMEM) enriched with 10% fetal bovine serum and 5 mL Penicillin/Streptomycin (1,000 units/mL Penicillin; 1,000 μg/mL Streptomycin) (all Life Technologies Inc.). Cell lines were cultured and maintained under standard conditions […]
One day prior the experiment, cells were trypsinized, seeded onto culture dishes with glass insert (ø35mm glass bottom dishes No. 15, poly-d-lysine coated, γ-Irradiated, MatTek corporation) and incubated overnight in 2 mL DMEM. […] The intrinsic GFP signal in the MDAMB231 X4 cells was measured with excitation at 488 nm and emission was collected at 500-525 nm.
Cy3 fluorescence was measured with excitation at 514 nm, emission was collected at 550-5 70 nm. Cy5 fluorescence was measured with excitation at 633 nm, emission was collected at 650-700 nm. Any Hoechst 33342 fluorescence was measured using 405 nm excitation and emission was collected at 420-470 nm. Images and signal quantifications were obtained using Leica Application Suite software, by applying the polygon function and calculating the average gray value/m2 for each cell. […]
On the technique in general: In flow cytometry, cells or beads pass a laser one at a time.

Test [2] relates to MDAMB231 X4 cells. In words: Host-guest dependent cell functionalization, confocal microscopy and flow cytometry. To be noted: peptide 10 μM, polymer 10 μM β-CD / 1 μM polymer, 1 h each at 0 °C; Fig. 3a. It is filed as cell-based, human. On the procedure:
The receptor-mediated functionalization of cells was examined by confocal microscopy and flow cytometry (see also ‘Ac-TZ14011-Ad induced cell functionalization analyzed by flow cytometry’). For Confocal microscopy MDAMB231 × 4 cells (80,000 per well) were incubated with either Ac-TZ14011 (10 μM), Ac-TZ14011-Ad (10 μM), or none, for 1 h at 0 °C in 1 mL DMEM. […] Thereafter, the cells were washed twice with PBS and confocal images were acquired. All experiments were performed in 6-fold and for each condition per experiment at least 10 cells were included in the study. The Cy5 signal present on the cell in each sample was quantified to analyze differences between the amount of binding of the polymers to the cells when either, no peptide, Ac-TZ14011, or Ac-TZ14011-Ad was present. For normalization all results were divided by the average fluorescence value obtained when just the polymer was added. The significance of the obtained differences was determined by student T-test (two tailed, unpaired).
Besides examining the receptor-mediated functionalization of cells by confocal microscopy (see ‘Ac-TZ14011-Ad induced cell functionalization analyzed by confocal microscopy’) the functionalization was also examined by flow cytometry to quantify the rate of functionalization. […] For data normalization, all results were divided by the average fluorescence value obtained when only the polymer was added. […]

Positions of bridges follow the written chain, without caps; N, C: chain ends. Non-standard residues stand in square brackets, D forms with d. Residues, ends and D or L forms follow the SMILES beside them. *: point of attachment. Adamantane1carbonyl = O=C(C12CC3CC(CC(C3)C1)C2)*; 2Nal = N[C@@H](Cc1ccc2ccccc2c1)C(=O)O; Cit = NC(=O)NCCC[C@H](N)C(=O)O

T1 sequence (P61073 whole entry): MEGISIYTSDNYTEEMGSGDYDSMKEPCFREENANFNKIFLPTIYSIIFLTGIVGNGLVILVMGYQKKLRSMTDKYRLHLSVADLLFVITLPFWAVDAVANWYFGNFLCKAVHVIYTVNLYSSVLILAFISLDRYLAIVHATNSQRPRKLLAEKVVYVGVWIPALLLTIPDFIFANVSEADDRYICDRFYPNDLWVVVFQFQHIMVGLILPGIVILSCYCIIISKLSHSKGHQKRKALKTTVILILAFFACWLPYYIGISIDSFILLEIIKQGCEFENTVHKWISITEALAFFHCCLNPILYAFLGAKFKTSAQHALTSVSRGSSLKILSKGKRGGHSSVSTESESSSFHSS

As usually defined, the Kd is a measure of binding affinity in units of concentration. `CC(=O)N[C@@H](CCCNC(=N)N)C(=O)N[C@@H](CCCNC(=N)N)C(=O)N[C@@H](Cc1ccc2ccccc2c1)C(=O)N[C@H]1CSSC[C@@H](C(=O)N[C@@H](CCCNC(=N)N)C(N)=O)NC(=O)[C@H](CCCNC(N)=O)NC(=O)[C@H](CCCNC(=N)N)NC(=O)[C@H](Cc2ccc(O)cc2)NC(=O)[C@@H]2CCCN2C(=O)[C@@H](CCCCNC(=O)C23CC4CC(CC(C4)C2)C3)NC(=O)[C@H](CCCNC(=N)N)NC(=O)[C@H](CCCNC(N)=O)NC(=O)[C@H](Cc2ccc(O)cc2)NC1=O` [Ac-TZ14011-Ad] (Ac-RR[2Nal]CY[Cit]R[dK](Adamantane1carbonyl)PYR[Cit]CR-NH2; disulfide 4-13) registered a Kd in test [1] of 0.056 µM. For the same compound, the “effect of pre-targeting peptide on Cy5_0.5CD10PIBMA39 binding” value in test [2] was “further enhances this effect”.

The values above are taken from PMC5216351, “Obtaining control of cell surface functionalizations via Pre-targeting and Supramolecular host guest interactions” (Scientific Reports, 2017).
